Measurements taken from US8299022B2, “Analogs of ghrelin substituted at the N-terminal” (IPSEN Pharma S.A.S., priority 2006, dated 2012).
Square brackets hold non-standard residues; d marks the D form. Peptide text beside a SMILES is read from it. * marks the point of attachment. Octanoyl = CCCCCCCC(=O)*; Aib = CC(C)(N)C(=O)O; Inp = O=C(O)C1CCNCC1

assay: Rat plasma ½ life (stability in plasma in a rat model); type: in vitro ADME
Protocol: A selection of the preferred embodiments listed above was analyzed to determine stability, i.e. ½ life in plasma in a rat model using techniques known to those skilled in the art.

SMILES	Rat Plasma ½ life
CCCCCCCC(=O)OC[C@H](NC(=O)[C@H](CCCCN)NC(=O)[C@H](CCCNC(=N)N)NC(=O)[C@H](CCC(N)=O)NC(=O)[C@H](CCC(N)=O)NC(=O)[C@@H](NC(=O)[C@H](CCCNC(=N)N)NC(=O)[C@H](CCC(N)=O)NC(=O)[C@H](Cc1c[nH]cn1)NC(=O)[C@H](CCC(=O)O)NC(=O)[C@@H]1CCCN1C(=O)[C@H](CO)NC(=O)[C@H](CC(C)C)NC(=O)[C@H](Cc1ccccc1)NC(=O)[C@H](COC(=O)CCCCCCC)NC(=O)C(C)(C)NC(=O)C1CCNCC1)C(C)C)C(=O)N[C@@H](CO)C(=O)N[C@@H](CCCCN)C(=O)N[C@@H](CCCCN)C(=O)N1CCC[C@H]1C(=O)N1CCC[C@H]1C(=O)N[C@@H](C)C(=O)N[C@@H](CCCCN)C(=O)N[C@@H](CC(C)C)C(=O)N[C@@H](CCC(N)=O)C(=O)N1CCC[C@H]1C(=O)N[C@@H](CCCNC(=N)N)C(N)=O [Example 10, (Inp^1, Aib^2, Ser(n-octanoyl)^17)hGhrelin(1-28)-NH2]	0.6 h
CCCCCCCC(=O)OC[C@H](NC(=O)C(C)(C)NC(=O)C1CCNCC1)C(=O)N[C@@H](Cc1ccccc1)C(=O)N[C@@H](CC(C)C)C(=O)N[C@@H](CO)C(=O)N1CCC[C@H]1C(=O)NC(C)(C)C(=O)N[C@@H](Cc1c[nH]cn1)C(=O)N[C@@H](CCC(N)=O)C(=O)N[C@@H](CCCNC(=N)N)C(=O)N[C@H](C(=O)N[C@@H](CCC(N)=O)C(=O)N[C@@H](CCC(N)=O)C(=O)N[C@@H](CCCNC(=N)N)C(=O)N[C@@H](CCCCN)C(=O)N[C@@H](CCC(=O)O)C(=O)N[C@@H](CO)C(=O)N[C@@H](CCCCN)C(=O)N[C@@H](CCCCN)C(=O)N1CCC[C@H]1C(=O)N1CCC[C@H]1C(=O)N[C@@H](C)C(=O)N[C@@H](CCCCN)C(=O)N[C@@H](CC(C)C)C(=O)N[C@@H](CCC(N)=O)C(=O)N1CCC[C@H]1C(=O)N[C@@H](CCCNC(=N)N)C(N)=O)C(C)C [Example 9, (Inp^1, Aib^2, 8)hGhrelin(1-28)-NH2]	1.2 h
CCCCCCCC(=O)OC[C@H](NC(=O)C(C)(C)NC(=O)C1CCNCC1)C(=O)N[C@@H](Cc1ccccc1)C(=O)N[C@@H](CC(C)C)C(=O)N[C@@H](CO)C(=O)N1CCC[C@H]1C(=O)N[C@@H](CCC(=O)O)C(=O)N[C@@H](Cc1c[nH]cn1)C(=O)N[C@@H](CCC(N)=O)C(=O)N[C@@H](CCCNC(=N)N)C(=O)N[C@H](C(=O)N[C@@H](CCC(N)=O)C(=O)N[C@@H](CCC(N)=O)C(=O)N[C@@H](CCCNC(=N)N)C(=O)N[C@@H](CCCCN)C(=O)N[C@@H](CCC(=O)O)C(=O)N[C@@H](CO)C(=O)N[C@@H](CCCCN)C(=O)N[C@@H](CCCCN)C(=O)N1CCC[C@H]1C(=O)N1CCC[C@H]1C(=O)N[C@@H](C)C(=O)N[C@@H](CCCCN)C(=O)N[C@@H](CC(C)C)C(=O)N[C@@H](CCC(N)=O)C(=O)N1CCC[C@H]1C(=O)N[C@@H](CCCNC(=N)N)C(N)=O)C(C)C [Example 6, (Inp^1, Aib^2)hGhrelin(1-28)-NH2]	1.4 h
CCCCCCNC(=O)CC[C@H](NC(=O)C(C)(C)NC(=O)C1CCNCC1)C(=O)N[C@@H](Cc1ccccc1)C(=O)N[C@@H](CC(C)C)C(=O)N[C@@H](CO)C(=O)N1CCC[C@H]1C(=O)N[C@@H](CCC(=O)O)C(=O)N[C@@H](Cc1c[nH]cn1)C(=O)N[C@@H](CCC(N)=O)C(=O)N[C@@H](CCCNC(=N)N)C(=O)N[C@H](C(=O)N[C@@H](CCC(N)=O)C(=O)N[C@@H](CCC(N)=O)C(=O)N[C@@H](CCCNC(=N)N)C(=O)N[C@@H](CCCCN)C(=O)N[C@@H](CCC(=O)O)C(=O)N[C@@H](CO)C(=O)N[C@@H](CCCCN)C(=O)N[C@@H](CCCCN)C(=O)N1CCC[C@H]1C(=O)N1CCC[C@H]1C(=O)N[C@@H](C)C(=O)N[C@@H](CCCCN)C(=O)N[C@@H](CC(C)C)C(=O)N[C@@H](CCC(N)=O)C(=O)N1CCC[C@H]1C(=O)N[C@@H](CCCNC(=N)N)C(N)=O)C(C)C [Example 7, (Inp^1, Aib^2, Glu(NH-hexyl)^3)hGhrelin(1-28)-NH2]	6.7 h
CCCCCCCC(=O)OC[C@H](NC(=O)[C@H](CO)NC(=O)C1CCNCC1)C(=O)N[C@@H](Cc1ccccc1)C(=O)N[C@@H](CC(C)C)C(=O)N[C@@H](CO)C(=O)N1CCC[C@H]1C(=O)N[C@@H](CCC(=O)O)C(=O)N[C@@H](Cc1c[nH]cn1)C(=O)N[C@@H](CCC(N)=O)C(=O)N[C@@H](CCCNC(=N)N)C(=O)N[C@H](C(=O)N[C@@H](CCC(N)=O)C(=O)N[C@@H](CCC(N)=O)C(=O)N[C@@H](CCCNC(=N)N)C(=O)N[C@@H](CCCCN)C(=O)N[C@@H](CCC(=O)O)C(=O)N[C@@H](CO)C(=O)N[C@@H](CCCCN)C(=O)N[C@@H](CCCCN)C(=O)N1CCC[C@H]1C(=O)N1CCC[C@H]1C(=O)N[C@@H](C)C(=O)N[C@@H](CCCCN)C(=O)N[C@@H](CC(C)C)C(=O)N[C@@H](CCC(N)=O)C(=O)N1CCC[C@H]1C(=O)N[C@@H](CCCNC(=N)N)C(N)=O)C(C)C [Example 5, (Inp^1)hGhrelin(1-28)-NH2]	6.2 h

The next lines start with the values.

Rat Plasma ½ life	SMILES
0.7 h	CCCCCCCC(=O)OC[C@H](NC(=O)[C@H](CCCCN)NC(=O)[C@H](CCCNC(=N)N)NC(=O)[C@H](CCC(N)=O)NC(=O)[C@H](CCC(N)=O)NC(=O)[C@@H](NC(=O)[C@H](CCCNC(=N)N)NC(=O)[C@H](CCC(N)=O)NC(=O)[C@H](Cc1c[nH]cn1)NC(=O)C(C)(C)NC(=O)[C@@H]1CCCN1C(=O)[C@H](CO)NC(=O)[C@H](CC(C)C)NC(=O)[C@H](Cc1ccccc1)NC(=O)[C@H](COC(=O)CCCCCCC)NC(=O)C(C)(C)NC(=O)C1CCNCC1)C(C)C)C(=O)N[C@@H](CO)C(=O)N[C@@H](CCCCN)C(=O)N[C@@H](CCCCN)C(=O)N1CCC[C@H]1C(=O)N1CCC[C@H]1C(=O)N[C@@H](C)C(=O)N[C@@H](CCCCN)C(=O)N[C@@H](CC(C)C)C(=O)N[C@@H](CCC(N)=O)C(=O)N1CCC[C@H]1C(=O)N[C@@H](CCCNC(=N)N)C(N)=O [Example 12, (Inp^1, Aib^2,8, Ser(n-octanoyl)^17)hGhrelin(1-28)-NH2] (H-[Inp][Aib]S(Octanoyl)FLSP[Aib]HQRVQQRKS(Octanoyl)SKKPPAKLQPR-NH2; N-terminus assumed)
0.7 h	CCCCCCCC(=O)OC[C@H](NC(=O)[C@H](CO)NC(=O)C1CCNCC1)C(=O)N[C@@H](Cc1ccccc1)C(=O)N[C@@H](CC(C)C)C(=O)N[C@@H](CO)C(=O)N1CCC[C@H]1C(=O)N[C@@H](CCC(=O)O)C(=O)N[C@@H](Cc1c[nH]cn1)C(=O)N[C@@H](CCC(N)=O)C(=O)N[C@@H](CCCNC(=N)N)C(=O)N[C@H](C(=O)N[C@@H](CCC(N)=O)C(=O)N[C@@H](CCC(N)=O)C(=O)N[C@@H](CCCNC(=N)N)C(=O)N[C@@H](CCCCN)C(=O)N[C@@H](COC(=O)CCCCCCC)C(=O)N[C@@H](CO)C(=O)N[C@@H](CCCCN)C(=O)N[C@@H](CCCCN)C(=O)N1CCC[C@H]1C(=O)N1CCC[C@H]1C(=O)N[C@@H](C)C(=O)N[C@@H](CCCCN)C(=O)N[C@@H](CC(C)C)C(=O)N[C@@H](CCC(N)=O)C(=O)N1CCC[C@H]1C(=O)N[C@@H](CCCNC(=N)N)C(N)=O)C(C)C [Example 11, (Inp^1, Ser(n-octanoyl)^17)hGhrelin(1-28)-NH2]
